Laboratory results taken from ChEMBL document CHEMBL1130572, “Synthesis and anti HCMV activity of 3,4-disubstituted tetrahydrofuran derived nucleosides and nucleotides: A tethered series of PME derivatives” (Bioorg Med Chem Lett, 1997).
Converted amounts (≈) assume the structure as drawn. The source made the active and inactive calls. The rule behind the calls is not given here.

Key:
[1] = system: Human betaherpesvirus 5; test: Compound was tested in vitro for cytotoxic activity against HCMV (Human cytomegalovirus); type: functional
[2] = system: Human betaherpesvirus 5; test: Compound was tested in vitro for inhibitory activity against HCMV (Human cytomegalovirus); type: functional, organism-based
[3] = system: Human betaherpesvirus 5; test: Compound (up to 100 ug/mL) was tested in vitro for inhibitory activity against HCMV (Human cytomegalovirus); Inactive; type: functional, organism-based
[4] = system: F2002 cell line; test: Compound was tested in vitro for cytotoxic activity against HCMV (Human cytomegalovirus) in Flow 2002 cells; type: functional
[5] = system: F2002 cell line; test: Compound was tested in vitro for inhibitory activity against HCMV (Human cytomegalovirus) in Flow 2002 cells; type: functional, cell-based
[6] = system: WI-38; test: Compound was tested in vitro for inhibitory activity against HCMV (Human cytomegalovirus) in WI38 cells; type: functional, cell-based
[7] = system: WI-38; test: Compound was tested in vitro for cytotoxic activity against HCMV (Human cytomegalovirus) in WI38 cells; type: functional
[8] = Compound was tested for selectivity index of […]; type: functional

SMILES | IC50 [5] [µg/mL] | CC50 [4] [µg/mL] | other results
Nc1nc2c(ncn2COC(CO)CO)c(=O)[nH]1 [GANCICLOVIR] |  |  | CC50 [1]: > 100 µg/mL; IC50 [2]: 0.1 µg/mL (≈ 0.392 µM)
Nc1ncnc2c1ncn2C1COCC1OCP(=O)(O)O (stereo not drawn) |  |  | Activity [3]: inactive
Nc1ncnc2c1ncn2[C@@H]1COCC1O (stereo partly drawn) | > 100 | > 100 | 
Nc1ncnc2c1ncn2C1COCC1O (stereo not drawn) |  |  | IC50 [6]: > 50 µg/mL; CC50 [7]: 100 µg/mL (≈ 452 µM)
N.Nc1ccn(C2COCC2OCP(=O)(O)O)c(=O)n1 (stereo not drawn) |  |  | IC50 [6]: > 100 µg/mL; CC50 [7]: > 100 µg/mL
Nc1ncnc2c1ncn2[C@@H]1COCC1OCP(=O)(O)O (stereo partly drawn) |  |  | Activity [3]: inactive
N.Nc1ccn([C@@H]2COCC2OCP(=O)(O)O)c(=O)n1 (stereo partly drawn) |  |  | IC50 [6]: > 50 µg/mL; CC50 [7]: > 100 µg/mL

The next lines start with results.

IC50 [5] [µg/mL] | SMILES | CC50 [4] [µg/mL] | other results
> 100 | O=c1ccn(C2COCC2OCP(=O)(O)O)c(=O)[nH]1 (stereo not drawn) | > 100 | 
> 100 | O=c1ccn([C@@H]2COCC2OCP(=O)(O)O)c(=O)[nH]1 (stereo partly drawn) | 100 (≈ 342 µM) | 
3 (≈ 15.2 µM) | Nc1ccn([C@@H]2COCC2O)c(=O)n1 (stereo partly drawn) | 100 (≈ 507 µM) | Selectivity index [8]: 33
> 100 | O=c1ccn([C@@H]2COCC2O)c(=O)[nH]1 (stereo partly drawn) | > 100 | 
> 100 | Nc1ccn(C2COCC2O)c(=O)n1 (stereo not drawn) | 100 (≈ 507 µM) | 
